Values of other authors, collected in US20230321008A1, “INHIBITORS OF ACID SPHINGOMYELINASE FOR PREVENTING AND TREATING THE COVID-19 DISEASE” (priority 2020, published 2023).

Target: T1, acid sphingomyelinase (ASM) (Homo sapiens, UniProt P17405)
T1 sequence (P17405 47-631): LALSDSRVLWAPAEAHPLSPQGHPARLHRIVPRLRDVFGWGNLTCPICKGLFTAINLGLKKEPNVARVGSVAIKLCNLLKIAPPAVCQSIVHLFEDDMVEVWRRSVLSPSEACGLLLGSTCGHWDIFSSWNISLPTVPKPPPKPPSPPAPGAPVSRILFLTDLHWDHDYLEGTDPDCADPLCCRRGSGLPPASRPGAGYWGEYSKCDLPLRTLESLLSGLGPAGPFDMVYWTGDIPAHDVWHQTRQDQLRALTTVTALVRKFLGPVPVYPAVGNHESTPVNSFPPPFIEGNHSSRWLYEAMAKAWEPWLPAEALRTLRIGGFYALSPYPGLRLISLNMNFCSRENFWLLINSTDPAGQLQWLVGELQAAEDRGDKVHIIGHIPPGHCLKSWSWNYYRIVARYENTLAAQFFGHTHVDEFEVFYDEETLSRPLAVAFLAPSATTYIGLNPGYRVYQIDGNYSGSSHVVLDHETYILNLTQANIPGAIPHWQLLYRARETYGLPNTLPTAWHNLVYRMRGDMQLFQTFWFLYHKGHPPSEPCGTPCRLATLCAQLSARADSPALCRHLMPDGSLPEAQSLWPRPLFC
Conditions: cited from earlier work

SMILES | In vitro inhibition of acid sphingomyelinase (in words)
COc1ccccc1OCCNCC(O)COc1cccc2[nH]c3ccccc3c12 (centres unmarked) [Carvedilol, carvedilol] | in vitro inhibit acid sphingomyelinase with varying degrees
CN(C)CC/C=C1/c2ccccc2Sc2ccc(Cl)cc21 [Chlorprothixene] | in vitro inhibit acid sphingomyelinase with varying degrees
CN(C)CCCN1c2ccccc2CCc2ccc(Cl)cc21 [Clomipramine, clomipramine] | in vitro inhibit acid sphingomyelinase with varying degrees
OCCN1CCN(CC/C=C2/c3ccccc3Sc3ccc(C(F)(F)F)cc32)CC1 [Flupenthixol] | in vitro inhibit acid sphingomyelinase with varying degrees
OCCN1CCN(CCCN2c3ccccc3Sc3ccc(C(F)(F)F)cc32)CC1 [Fluphenazine] | in vitro inhibit acid sphingomyelinase with varying degrees
OC1(c2ccc(Cl)c(C(F)(F)F)c2)CCN(CCCC(c2ccc(F)cc2)c2ccc(F)cc2)CC1 [Penfluridol] | in vitro inhibit acid sphingomyelinase with varying degrees
OCCN1CCN(CCCN2c3ccccc3Sc3ccc(Cl)cc32)CC1 [Perphenazine] | in vitro inhibit acid sphingomyelinase with varying degrees
CN(C)CCCN1c2ccccc2Sc2ccccc21 [Promazine] | in vitro inhibit acid sphingomyelinase with varying degrees
O=C1NCCN1CCN1CCC(c2cn(-c3ccc(F)cc3)c3ccc(Cl)cc23)CC1 [Sertindole] | in vitro inhibit acid sphingomyelinase with varying degrees
CSc1ccc2c(c1)N(CCC1CCCCN1C)c1ccccc1S2 (centres unmarked) [Thioridazin] | in vitro inhibit acid sphingomyelinase with varying degrees
CN1CCN(CCCN2c3ccccc3Sc3ccc(C(F)(F)F)cc32)CC1 [Trifluoperazine] | in vitro inhibit acid sphingomyelinase with varying degrees
CN(C)CCCN1c2ccccc2Sc2ccc(C(F)(F)F)cc21 [Triflupromazine] | in vitro inhibit acid sphingomyelinase with varying degrees
CCN(CCCc1ccccc1)CCCc1ccccc1 [alverine] | in vitro inhibit acid sphingomyelinase with varying degrees
CCN(CC)CCCN(c1ccccc1)C1Cc2ccccc2C1 [aprindine] | in vitro inhibit acid sphingomyelinase with varying degrees
COc1ccc(CCN2CCC(Nc3nc4ccccc4n3Cc3ccc(F)cc3)CC2)cc1 [astemizole] | in vitro inhibit acid sphingomyelinase with varying degrees
CN1[C@@H]2CC[C@H]1C[C@@H](OC(c1ccccc1)c1ccccc1)C2 [benztropine] | in vitro inhibit acid sphingomyelinase with varying degrees
CC(C)COCC(CN(Cc1ccccc1)c1ccccc1)N1CCCC1 (centres unmarked) [bepridil] | in vitro inhibit acid sphingomyelinase with varying degrees
OC(CCN1CCCCC1)(c1ccccc1)C1CC2C=CC1C2 (centres unmarked) [biperidene] | in vitro inhibit acid sphingomyelinase with varying degrees
CCN(CC)CCNC(C(=O)OCCC(C)C)c1ccccc1 (centres unmarked) [camylofin] | in vitro inhibit acid sphingomyelinase with varying degrees
CC(C)/N=c1\cc2n(-c3ccc(Cl)cc3)c3ccccc3nc-2cc1Nc1ccc(Cl)cc1 [clofazimine] | in vitro inhibit acid sphingomyelinase with varying degrees
Clc1ccc(C(OCCN2CCCCC2)c2ccccc2)cc1 (centres unmarked) [cloperastine] | in vitro inhibit acid sphingomyelinase with varying degrees
C[C@H]1[C@H]2CC[C@H]3[C@@H]4CC=C5C[C@@H](N(C)C)CC[C@]5(C)[C@H]4CC[C@]23CN1C [conessine] | in vitro inhibit acid sphingomyelinase with varying degrees
CN(C)CCC=C1c2ccccc2C=Cc2ccccc21 [cyclobenzaprine] | in vitro inhibit acid sphingomyelinase with varying degrees
COc1cc(C(=O)OCCCN2CCCN(CCCOC(=O)c3cc(OC)c(OC)c(OC)c3)CC2)cc(OC)c1OC [dilazep] | in vitro inhibit acid sphingomyelinase with varying degrees

SMILES | In vitro inhibition of acid sphingomyelinase (in words)
CN(C)CCC=C1c2ccccc2COc2ccccc21 [doxepin] | in vitro inhibit acid sphingomyelinase with varying degrees
CC[C@H]1CN2CCc3cc(OC)c(OC)cc3[C@@H]2C[C@@H]1C[C@H]1NCCc2cc(OC)c(OC)cc21 [emetine] | in vitro inhibit acid sphingomyelinase with varying degrees
CC(NCCC(c1ccccc1)c1ccccc1)c1ccccc1 (centres unmarked) [fendiline] | in vitro inhibit acid sphingomyelinase with varying degrees
Fc1ccc(C(c2ccc(F)cc2)N2CCN(C/C=C/c3ccccc3)CC2)cc1 [flunarizine] | in vitro inhibit acid sphingomyelinase with varying degrees
CN(CCCN1c2ccccc2CCc2ccccc21)CC(=O)c1ccc(Cl)cc1 [lofepramine] | in vitro inhibit acid sphingomyelinase with varying degrees
CCN(CCCCOC(=O)c1ccc(OC)c(OC)c1)C(C)Cc1ccc(OC)cc1 (centres unmarked) [mebeverine] | in vitro inhibit acid sphingomyelinase with varying degrees
CN1CCc2c(c3ccccc3n2Cc2ccccc2)C1 [mebhydrolin] | in vitro inhibit acid sphingomyelinase with varying degrees
COCC(=O)O[C@]1(CCN(C)CCCc2nc3ccccc3[nH]2)CCc2cc(F)ccc2[C@@H]1C(C)C [mibefradil] | in vitro inhibit acid sphingomyelinase with varying degrees
CN1CCN2c3ncccc3Cc3ccccc3C2C1 (centres unmarked) [mirtazapine] | there are discrepancies whether citalopram, venlafaxine and mirtazapine do have in vitro FIASMA effect
CNCCC=C1c2ccccc2CCc2ccccc21 [nortriptyline] | in vitro inhibit acid sphingomyelinase with varying degrees
C1CCC(C(CC2CCCCN2)C2CCCCC2)CC1 (centres unmarked) [perhexiline] | in vitro inhibit acid sphingomyelinase with varying degrees
CN1CCC(=C2c3ccccc3Sc3ccccc32)CC1 [pimethixene] | in vitro inhibit acid sphingomyelinase with varying degrees
CCN(CC)C(C)CN1c2ccccc2Sc2ccccc21 (centres unmarked) [profenamine] | in vitro inhibit acid sphingomyelinase with varying degrees
CC(CN1c2ccccc2Sc2ccccc21)N(C)C (centres unmarked) [promethazine] | in vitro inhibit acid sphingomyelinase with varying degrees
CNCCCC1c2ccccc2C=Cc2ccccc21 [protriptyline] | in vitro inhibit acid sphingomyelinase with varying degrees
CCN(CC)CCCC(C)Nc1c2ccc(Cl)cc2nc2ccc(OC)cc12 (centres unmarked) [quinacrine] | in vitro inhibit acid sphingomyelinase with varying degrees
C[C@@H]1CC[C@@]2(NC1)O[C@H]1C[C@H]3[C@@H]4CC=C5C[C@@H](O)CC[C@]5(C)[C@H]4CC[C@]3(C)[C@H]1[C@@H]2C [solasodine] | in vitro inhibit acid sphingomyelinase with varying degrees
CCCCCCCCNC(C)C(O)c1ccc(SC(C)C)cc1 (centres unmarked) [suloctidil] | in vitro inhibit acid sphingomyelinase with varying degrees
CC/C(=C(\c1ccccc1)c1ccc(OCCN(C)C)cc1)c1ccccc1 [tamoxifen] | in vitro inhibit acid sphingomyelinase with varying degrees
CC(C)(C)c1ccc(C(O)CCCN2CCC(C(O)(c3ccccc3)c3ccccc3)CC2)cc1 (centres unmarked) [terfenadine] | in vitro inhibit acid sphingomyelinase with varying degrees
C[C@H]1CC[C@]2(NC1)O[C@H]1C[C@H]3[C@@H]4CC[C@H]5C[C@@H](O)CC[C@]5(C)[C@H]4CC[C@]3(C)[C@H]1[C@@H]2C [tomatidine] | in vitro inhibit acid sphingomyelinase with varying degrees
CC(CN(C)C)CN1c2ccccc2CCc2ccccc21 (centres unmarked) [trimipramine] | in vitro inhibit acid sphingomyelinase with varying degrees
COc1ccc(C(CN(C)C)C2(O)CCCCC2)cc1 (centres unmarked) [venlafaxine] | there are discrepancies whether citalopram, venlafaxine and mirtazapine do have in vitro FIASMA effect
